Results reported in PubChem BioAssay AID1963968 (Molecular Pharmacology Branch, DTP, NCI, 2024).

System: 945468-187-T-J3-PDC spheroids with HUVEC/MSC, viability
Experiment: Anticancer human tumor 945468-187-T-J3-PDC patient-derived rectal carcinoma cell line growth inhibition [PI3K]
Conditions: for IC50: curve of first compound; for viability, T/C: stronger effect = lower value
Description: Combinatorial screen of targeted agents with the PI3K inhibitors inavolisib, alpelisib, duvelisib, and copanlisib in multi-cell type tumor spheroids
A high-throughput screen of multi-cell type tumor spheroids was designed to identify active combinations of targeted small molecules and PI3K pathway inhibitors. Complex spheroids include a stromal component modeled by human endothelial cells (HUVEC) and fibroblasts modeled by human mesenchymal stem cells (MSCs). The concentration ranges selected for each drug and investigational agent were based upon clinically achievable concentrations if the clinical Cmax of the agent was known.
Compounds. The drugs and investigational agents: inavolisib (NSC800729), alpelisib (NSC765974), duvelisib (NSC772469), copanlisib (NSC816437), ipatasertib (NSC767898), afuresertib (NSC778305), talazoparib (NSC767125), sapanisertib (NSC764658), selumetinib (NSC741078), tovorafenib (DAY101, NSC766906), vemurafenib (NSC761431), ravoxertinib (NSC781343), sotorasib (NSC818433), MRTX1133 (NSC 836407), abemaciclib (NSC 768073), palbociclib (NSC758247), venetoclax (NSC 766270), SY5609 (NSC837396), enzalutamide (NSC755605), and darolutamide (NSC825331), were obtained from the National Cancer Institute (NCI) Developmental Therapeutics Program Chemical Repository. The FDA-approved anticancer drug set is available from the NCI Developmental Therapeutics Program. […] The stock solutions were prepared in dimethyl sulfoxide (DMSO, Sigma-Aldrich, St. Louis, MO, cat. D2650) at 800-fold the tested concentration and stored at -70 degrees C prior to their use. All drugs and investigational agents were tested over a range starting from a high concentration at or near the clinical Cmax and decreasing in half-log increments. If the clinical Cmax for an agent had not been determined, the highest concentration tested was 10 microM.
Cell Culture. All cells were maintained in an incubator at 37 degrees C and 5% CO2 with 95% humidity. The PDC lines were cultured according to standard operating procedures established by the NCI PDMR (https://pdmr.cancer.gov/sops/default.htm). All PDCs were thawed and cultured in Matrigel-coated flasks prepared with a working solution of 1X Ham's F-12 nutrient mix, without supplementation (Invitrogen, Waltham, MA, cat. 11765054), 100 U/mL penicillin-streptomycin (Invitrogen, cat. 15140122), and 2.5% Matrigel (Corning Inc., Corning, NY, cat. 354248) for the first three passages. The 354836-022-R-J1-PDC, 475296-252-R-J1-PDC, and 997726-040-R-J2-PDC lines were cultured in 6A media, which includes advanced DMEM/F-12 (Thermo Fisher Scientific, cat. 12634028), 10 mM HEPES (Thermo Fisher Scientific, cat. 15630080), 1X GlutaMAX supplement (Thermo Fisher Scientific, cat. 35050061), 0.1 mg/mL primocin (InvivoGen, San Diego, CA, cat. ant-pm-2), 10% defined fetal bovine serum, heat inactivated (HyClone Laboratories Inc., Logan, UT, cat. SH30070.03HI), 50% L-WRN conditioned media (ATCC, cat. CRL-3276), 1.25 mM N-Acetyl-L-cysteine (Sigma-Aldrich, cat. A9165), 10 mM nicotinamide (Sigma-Aldrich, cat. N0636), 1X B-27 supplement (Thermo Fisher Scientific, cat. 17504044), 1X N-2 supplement (Thermo Fisher Scientific, cat. 17502048), and 10 microM Y-27632 dihydrochloride (Tocris Bioscience, Bristol, United Kingdom, cat. 1254). The 624824-186-R-J2-PDC line was cultured in 6C/Colon 1B media, which includes all 6A media components plus 50 ng/mL human EGF recombinant protein (Thermo Fisher Scientific, cat. PHG0311). […]
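Further: spheroids exposed to agents for 7 days before viability read.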
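Wherever viability, T/C is given: 100% = DMSO vehicle control viability.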

Work on Cn1cnc2c(F)c(Nc3ccc(Br)cc3Cl)c(C(=O)NOCCO)cc21 + CC(Nc1ccc2c(c1)OCCn1cc(N3C(=O)OCC3C(F)F)nc1-2)C(N)=O yielded an IC50 (second compound 0.00316 µM) of over 3000 nM, an IC50 (second compound 0.01 µM) of over 3000 nM and an IC50 (second compound 0.0316 µM) of over 3000 nM. The IC50 (second compound 0.1 µM) was 834 nM, the IC50 (second compound 0.316 µM) was 118 nM and the IC50 (second compound 1 µM) was 32 nM. It also gave a viability, T/C (second compound 0.00316 µM, first compound 0.00949 µM) of 105%, a viability, T/C (second compound 0.00316 µM, first compound 0.03 µM) of 100% and a viability, T/C (second compound 0.00316 µM, first compound 0.0949 µM) of 117%. It also gave a viability, T/C (second compound 0.00316 µM, first compound 0.3 µM) of 116%, a viability, T/C (second compound 0.00316 µM, first compound 0.949 µM) of 114% and a viability, T/C (second compound 0.00316 µM, first compound 3 µM) of 95.3%. The viability, T/C (second compound 0.01 µM, first compound 0.00949 µM) was 103%, the viability, T/C (second compound 0.01 µM, first compound 0.03 µM) was 105% and the viability, T/C (second compound 0.01 µM, first compound 0.0949 µM) was 114%. The viability, T/C (second compound 0.01 µM, first compound 0.3 µM) was 111%, the viability, T/C (second compound 0.01 µM, first compound 0.949 µM) was 126% and the viability, T/C (second compound 0.01 µM, first compound 3 µM) was 91.2%. For the same compound, the viability, T/C (second compound 0.0316 µM, first compound 0.00949 µM) was 107%, the viability, T/C (second compound 0.0316 µM, first compound 0.03 µM) was 119% and the viability, T/C (second compound 0.0316 µM, first compound 0.0949 µM) was 120%. The viability, T/C (second compound 0.0316 µM, first compound 0.3 µM) was 100%, the viability, T/C (second compound 0.0316 µM, first compound 0.949 µM) was 97.1% and the viability, T/C (second compound 0.0316 µM, first compound 3 µM) was 62.7%. It also gave a viability, T/C (second compound 0.1 µM, first compound 0.00949 µM) of 114%, a viability, T/C (second compound 0.1 µM, first compound 0.03 µM) of 116% and a viability, T/C (second compound 0.1 µM, first compound 0.0949 µM) of 104%. For the same compound, the viability, T/C (second compound 0.1 µM, first compound 0.3 µM) was 73.3%, the viability, T/C (second compound 0.1 µM, first compound 0.949 µM) was 49.5% and the viability, T/C (second compound 0.1 µM, first compound 3 µM) was 33%. It also gave a viability, T/C (second compound 0.316 µM, first compound 0.00949 µM) of 85.2%, a viability, T/C (second compound 0.316 µM, first compound 0.03 µM) of 73.1% and a viability, T/C (second compound 0.316 µM, first compound 0.0949 µM) of 52.7%. For the same compound, the viability, T/C (second compound 0.316 µM, first compound 0.3 µM) was 35.4%, the viability, T/C (second compound 0.316 µM, first compound 0.949 µM) was 26% and the viability, T/C (second compound 0.316 µM, first compound 3 µM) was 19.2%. It also gave a viability, T/C (second compound 1 µM, first compound 0.00949 µM) of 60.4%, a viability, T/C (second compound 1 µM, first compound 0.03 µM) of 50.7% and a viability, T/C (second compound 1 µM, first compound 0.0949 µM) of 36.9%. The viability, T/C (second compound 1 µM, first compound 0.3 µM) was 23.3%, the viability, T/C (second compound 1 µM, first compound 0.949 µM) was 15.9% and the viability, T/C (second compound 1 µM, first compound 3 µM) was 11.7%.
